From ChEMBL document CHEMBL3885881, “DrugMatrix”

Organism: Rattus norvegicus
Experiment: DrugMatrix - Regimen: Daily Repeat
Format: toxicity, organism-based, Sprague-Dawley
Set-up: regimen Daily Repeat, gender Male, age 6-8 weeks
Conditions: in vivo, iv, […], vehicle 100 % SALINE; for MONOCYTE / NEUTROPHIL / NUCLEATED RED BLOOD CELLS / ABSOLUTE BASOPHIL / ABSOLUTE EOSINOPHIL / ABSOLUTE LYMPHOCYTE / ABSOLUTE MONOCYTE / ABSOLUTE SEGMENTED NEUTROPHIL / BASOPHIL / EOSINOPHIL / ERYTHROCYTE COUNT / HEMATOCRIT / HEMOGLOBIN / LEUKOCYTE COUNT / LYMPHOCYTE / MEAN CORPUSCULAR HEMOGLOBIN / MEAN CORPUSCULAR HEMOGLOBIN CONCENTRATION / MEAN CORPUSCULAR VOLUME: tissue Blood; for ALANINE AMINOTRANSFERASE / ALKALINE PHOSPHATASE / ASPARTATE AMINOTRANSFERASE / BLOOD UREA NITROGEN / CARBON DIOXIDE / CHOLESTEROL / CREATINE PHOSPHOKINASE / CREATININE / GLUCOSE / LACTATE DEHYDROGENASE / LIPASE / SODIUM / TOTAL BILIRUBIN / TOTAL PROTEIN / URIC ACID: tissue Plasma
[1] = 72 h, dose 2.7 mg/Kg, dose level High, time 3 day
[2] = 72 h, dose 0.27 mg/Kg, dose level Low, time 3 day
[3] = 120 h, dose 0.27 mg/Kg, dose level Low, time 5 day
[4] = 120 h, dose 2.7 mg/Kg, dose level High, time 5 day

With `COc1cccc2c1C(=O)c1c(O)c3c(c(O)c1C2=O)C[C@@](O)(C(=O)CO)C[C@@H]3O[C@H]1C[C@H](N)[C@@H](O)[C@H](C)O1` [EPIRUBICIN] the MONOCYTE [1] was 0.67%, the NEUTROPHIL [1] was 8.67% and the “NUCLEATED RED BLOOD CELLS” value [1] was 0 /100WBC. The “ALANINE AMINOTRANSFERASE” value [2] was 37 u/L, the “ALKALINE PHOSPHATASE” value [2] was 440.33 u/L and the “ASPARTATE AMINOTRANSFERASE” value [2] was 76.33 u/L. The “BLOOD UREA NITROGEN” value [2] was 17 mg/dL, the “CARBON DIOXIDE” value [2] was 25 mmol/L and the CHOLESTEROL [2] was 79.67 mg/dL. The “CREATINE PHOSPHOKINASE” value [2] was 317.67 u/L, the CREATININE [2] was 0.15 mg/dL and the GLUCOSE [2] was 161.33 mg/dL. For the same molecule, the “LACTATE DEHYDROGENASE” value [2] was 433 u/L, the LIPASE [2] was 9.33 u/L and the SODIUM [2] was 143.3 MEQ/L. The “TOTAL BILIRUBIN” value [2] was 0.2 mg/dL, the “TOTAL PROTEIN” value [2] was 5.67 G/DL and the “URIC ACID” value [2] was 1.5 mg/dL. The “ALANINE AMINOTRANSFERASE” value [1] was 33 u/L, the “ALKALINE PHOSPHATASE” value [1] was 297.33 u/L and the “ASPARTATE AMINOTRANSFERASE” value [1] was 83.67 u/L. For the same molecule, the “BLOOD UREA NITROGEN” value [1] was 13 mg/dL, the “CARBON DIOXIDE” value [1] was 26.33 mmol/L and the CHOLESTEROL [1] was 96.33 mg/dL. For the same molecule, the “CREATINE PHOSPHOKINASE” value [1] was 442.33 u/L, the CREATININE [1] was 0.12 mg/dL and the GLUCOSE [1] was 146.33 mg/dL. The “LACTATE DEHYDROGENASE” value [1] was 682.67 u/L, the LIPASE [1] was 10 u/L and the SODIUM [1] was 143.33 MEQ/L. For the same molecule, the “TOTAL BILIRUBIN” value [1] was 0.0667 mg/dL, the “TOTAL PROTEIN” value [1] was 5.73 G/DL and the “URIC ACID” value [1] was 1.43 mg/dL. For the same molecule, the “ABSOLUTE BASOPHIL” value [3] was 0 CELLS/uL, the “ABSOLUTE EOSINOPHIL” value [3] was 0 CELLS/uL and the “ABSOLUTE LYMPHOCYTE” value [3] was 12433.67 CELLS/uL. The “ABSOLUTE MONOCYTE” value [3] was 229 CELLS/uL, the “ABSOLUTE SEGMENTED NEUTROPHIL” value [3] was 504 CELLS/uL and the BASOPHIL [3] was 0%. The EOSINOPHIL [3] was 0%, the “ERYTHROCYTE COUNT” value [3] was 5.91 x10E6/uL and the HEMATOCRIT [3] was 37.27%. The HEMOGLOBIN [3] was 14.33 G/DL, the “LEUKOCYTE COUNT” value [3] was 13.17 x10E3/uL and the LYMPHOCYTE [3] was 94.33%. For the same molecule, the “MEAN CORPUSCULAR HEMOGLOBIN” value [3] was 24.27 pg, the “MEAN CORPUSCULAR HEMOGLOBIN CONCENTRATION” value [3] was 38.5 G/DL and the “MEAN CORPUSCULAR VOLUME” value [3] was 63.07 fL. The MONOCYTE [3] was 1.67%, the NEUTROPHIL [3] was 4% and the “NUCLEATED RED BLOOD CELLS” value [3] was 0 /100WBC. For the same molecule, the “ABSOLUTE BASOPHIL” value [4] was 0 CELLS/uL, the “ABSOLUTE EOSINOPHIL” value [4] was 0 CELLS/uL and the “ABSOLUTE LYMPHOCYTE” value [4] was 1316 CELLS/uL. The “ABSOLUTE MONOCYTE” value [4] was 12 CELLS/uL, the “ABSOLUTE SEGMENTED NEUTROPHIL” value [4] was 72 CELLS/uL and the BASOPHIL [4] was 0%. The EOSINOPHIL [4] was 0%, the “ERYTHROCYTE COUNT” value [4] was 6.07 x10E6/uL and the HEMATOCRIT [4] was 37.4%. For the same molecule, the HEMOGLOBIN [4] was 15.17 G/DL, the “LEUKOCYTE COUNT” value [4] was 1.4 x10E3/uL and the LYMPHOCYTE [4] was 94%. The “MEAN CORPUSCULAR HEMOGLOBIN” value [4] was 25.13 pg, the “MEAN CORPUSCULAR HEMOGLOBIN CONCENTRATION” value [4] was 40.6 G/DL and the “MEAN CORPUSCULAR VOLUME” value [4] was 61.83 fL. The MONOCYTE [4] was 1%, the NEUTROPHIL [4] was 5% and the “NUCLEATED RED BLOOD CELLS” value [4] was 0 /100WBC. For the same molecule, the “ALANINE AMINOTRANSFERASE” value [3] was 57.67 u/L, the “ALKALINE PHOSPHATASE” value [3] was 390.33 u/L and the “ASPARTATE AMINOTRANSFERASE” value [3] was 107.33 u/L. For the same molecule, the “BLOOD UREA NITROGEN” value [3] was 16.67 mg/dL, the “CARBON DIOXIDE” value [3] was 25 mmol/L and the CHOLESTEROL [3] was 75 mg/dL. For the same molecule, the “CREATINE PHOSPHOKINASE” value [3] was 510.67 u/L, the CREATININE [3] was 0.16 mg/dL and the GLUCOSE [3] was 152 mg/dL. The “LACTATE DEHYDROGENASE” value [3] was 825.67 u/L, the LIPASE [3] was 9 u/L and the SODIUM [3] was 144.37 MEQ/L. For the same molecule, the “TOTAL BILIRUBIN” value [3] was 0.17 mg/dL, the “TOTAL PROTEIN” value [3] was 5.9 G/DL and the “URIC ACID” value [3] was 1.63 mg/dL. For the same molecule, the “ALANINE AMINOTRANSFERASE” value [4] was 29 u/L, the “ALKALINE PHOSPHATASE” value [4] was 172 u/L and the “ASPARTATE AMINOTRANSFERASE” value [4] was 79.33 u/L. The “BLOOD UREA NITROGEN” value [4] was 20.67 mg/dL, the “CARBON DIOXIDE” value [4] was 28 mmol/L and the CHOLESTEROL [4] was 93 mg/dL. For the same molecule, the “CREATINE PHOSPHOKINASE” value [4] was 725.67 u/L, the CREATININE [4] was 0.12 mg/dL and the GLUCOSE [4] was 151.33 mg/dL. For the same molecule, the “LACTATE DEHYDROGENASE” value [4] was 374.33 u/L, the LIPASE [4] was 8.67 u/L and the SODIUM [4] was 141.7 MEQ/L. The “TOTAL BILIRUBIN” value [4] was 0.0667 mg/dL, the “TOTAL PROTEIN” value [4] was 5.67 G/DL and the “URIC ACID” value [4] was 1.37 mg/dL.
